Measured values reported in patent US12667619B2, “Integrin targeting ligands and uses thereof” (Arrowhead Pharmaceuticals, Inc., priority 2018, dated 2026).

How the values were obtained:
αvβ3 integrin = αvβ3 integrin (Homo sapiens, UniProt P05106+P06756); assay: IC50 binding activity, αvβ3 integrin; settings: read-out: IC50 ανβ3
From the text: (§1) As reported in the following Table 1, IC50 binding data was obtained for the integrin targeting ligands of Structures 1c, 2c, and 3c, as w ell as an RGD-mimetic peptide:
(§2) Moreover, while the RGD-mimetic ligand is shown to have binding activity, the integrin targeting ligands of the present disclosure have increased stability, both with respect to serum stability in vim and chemical stability ex vim, compared to such peptide-based RGD-mimetic ligands.

αvβ5 integrin = αvβ5 integrin (Homo sapiens, UniProt P06756+P18084); assay: IC50 binding activity, αvβ5 integrin; settings: read-out: IC50 ανβ5
From the text: as §1, §2

ανβ6 = ανβ6 (Homo sapiens, UniProt P06756+P18564); assay: IC50 binding activity, αvβ6 integrin
From the text: As reported in the following Table 1, IC50 binding data was obtained for the integrin targeting ligands of Structures 1c, 2c, and 3c, as w ell as an RGD-mimetic peptide: […]

Sequence of ανβ6 (P06756 31-1048): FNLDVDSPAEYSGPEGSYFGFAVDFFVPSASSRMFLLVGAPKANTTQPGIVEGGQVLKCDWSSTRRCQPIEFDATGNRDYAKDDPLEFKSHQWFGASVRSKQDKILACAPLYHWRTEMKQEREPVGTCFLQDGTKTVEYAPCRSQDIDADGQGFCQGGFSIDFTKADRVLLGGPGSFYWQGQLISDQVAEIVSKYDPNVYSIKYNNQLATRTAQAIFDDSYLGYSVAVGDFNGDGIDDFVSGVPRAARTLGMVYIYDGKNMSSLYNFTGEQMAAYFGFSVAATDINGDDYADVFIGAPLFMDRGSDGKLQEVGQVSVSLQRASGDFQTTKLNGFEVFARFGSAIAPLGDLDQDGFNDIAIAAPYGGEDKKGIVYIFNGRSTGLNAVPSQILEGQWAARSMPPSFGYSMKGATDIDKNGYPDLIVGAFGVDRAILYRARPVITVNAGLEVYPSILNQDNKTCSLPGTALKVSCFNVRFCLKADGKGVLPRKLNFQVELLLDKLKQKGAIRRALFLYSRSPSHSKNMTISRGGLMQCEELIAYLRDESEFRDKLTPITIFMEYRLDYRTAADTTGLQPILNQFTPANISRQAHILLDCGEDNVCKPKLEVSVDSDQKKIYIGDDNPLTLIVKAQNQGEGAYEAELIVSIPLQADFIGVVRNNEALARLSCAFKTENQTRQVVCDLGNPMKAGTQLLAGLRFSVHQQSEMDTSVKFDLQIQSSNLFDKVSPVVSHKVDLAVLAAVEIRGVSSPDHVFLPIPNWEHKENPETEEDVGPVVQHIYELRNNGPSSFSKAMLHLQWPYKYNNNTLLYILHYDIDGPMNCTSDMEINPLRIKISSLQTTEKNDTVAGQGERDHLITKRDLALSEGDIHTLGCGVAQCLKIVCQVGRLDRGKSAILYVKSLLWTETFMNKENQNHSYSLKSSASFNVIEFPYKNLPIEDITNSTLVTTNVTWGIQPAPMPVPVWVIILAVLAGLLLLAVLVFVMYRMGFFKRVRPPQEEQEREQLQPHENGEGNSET
Sequence of ανβ6 (P18564 22-788): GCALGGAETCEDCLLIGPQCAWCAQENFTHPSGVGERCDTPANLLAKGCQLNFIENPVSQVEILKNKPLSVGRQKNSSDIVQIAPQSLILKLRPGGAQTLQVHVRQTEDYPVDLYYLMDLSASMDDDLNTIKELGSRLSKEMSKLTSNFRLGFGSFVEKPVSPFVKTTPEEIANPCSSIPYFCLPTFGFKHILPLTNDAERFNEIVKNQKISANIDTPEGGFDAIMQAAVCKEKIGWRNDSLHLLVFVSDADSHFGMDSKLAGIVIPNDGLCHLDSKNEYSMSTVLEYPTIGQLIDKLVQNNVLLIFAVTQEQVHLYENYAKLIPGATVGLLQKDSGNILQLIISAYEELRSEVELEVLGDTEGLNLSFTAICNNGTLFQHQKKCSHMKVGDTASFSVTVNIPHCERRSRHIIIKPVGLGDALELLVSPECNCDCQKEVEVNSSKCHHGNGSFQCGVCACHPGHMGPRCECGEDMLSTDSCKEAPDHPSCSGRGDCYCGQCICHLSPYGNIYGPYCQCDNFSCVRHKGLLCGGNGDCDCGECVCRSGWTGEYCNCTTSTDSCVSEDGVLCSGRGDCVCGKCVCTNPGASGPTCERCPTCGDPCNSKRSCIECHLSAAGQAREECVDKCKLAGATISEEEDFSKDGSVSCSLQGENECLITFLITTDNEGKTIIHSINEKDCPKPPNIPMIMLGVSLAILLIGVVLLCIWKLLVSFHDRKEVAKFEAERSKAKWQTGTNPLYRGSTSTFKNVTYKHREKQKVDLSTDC
Sequence of αvβ5 integrin (P06756 31-1048): as the sequence (P06756 31-1048) above
Sequence of αvβ5 integrin (P18084 24-799): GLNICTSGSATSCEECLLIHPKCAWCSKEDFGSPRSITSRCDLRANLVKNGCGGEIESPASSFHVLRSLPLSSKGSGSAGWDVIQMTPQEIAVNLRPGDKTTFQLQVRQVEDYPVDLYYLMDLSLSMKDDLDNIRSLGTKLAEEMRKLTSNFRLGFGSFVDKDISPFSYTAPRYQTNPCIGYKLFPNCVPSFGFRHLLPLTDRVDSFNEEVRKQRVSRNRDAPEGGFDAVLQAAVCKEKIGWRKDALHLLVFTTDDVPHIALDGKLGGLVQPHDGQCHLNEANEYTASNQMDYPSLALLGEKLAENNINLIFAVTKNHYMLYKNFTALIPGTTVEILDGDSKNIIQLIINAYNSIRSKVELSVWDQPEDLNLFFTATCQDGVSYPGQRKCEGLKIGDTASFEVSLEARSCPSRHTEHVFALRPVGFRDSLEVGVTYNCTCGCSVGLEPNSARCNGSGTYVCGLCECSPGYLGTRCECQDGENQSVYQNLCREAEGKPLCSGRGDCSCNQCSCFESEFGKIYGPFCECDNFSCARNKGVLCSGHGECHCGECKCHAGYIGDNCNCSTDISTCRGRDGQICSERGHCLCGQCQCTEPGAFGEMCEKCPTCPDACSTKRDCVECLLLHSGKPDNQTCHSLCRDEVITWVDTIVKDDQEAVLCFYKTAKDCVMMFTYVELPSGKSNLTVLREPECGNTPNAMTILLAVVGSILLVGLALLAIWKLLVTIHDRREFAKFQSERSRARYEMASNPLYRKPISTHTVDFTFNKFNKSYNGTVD
Sequence of αvβ3 integrin (P06756 31-1048): as the sequence (P06756 31-1048) above
Sequence of αvβ3 integrin (P05106 27-788): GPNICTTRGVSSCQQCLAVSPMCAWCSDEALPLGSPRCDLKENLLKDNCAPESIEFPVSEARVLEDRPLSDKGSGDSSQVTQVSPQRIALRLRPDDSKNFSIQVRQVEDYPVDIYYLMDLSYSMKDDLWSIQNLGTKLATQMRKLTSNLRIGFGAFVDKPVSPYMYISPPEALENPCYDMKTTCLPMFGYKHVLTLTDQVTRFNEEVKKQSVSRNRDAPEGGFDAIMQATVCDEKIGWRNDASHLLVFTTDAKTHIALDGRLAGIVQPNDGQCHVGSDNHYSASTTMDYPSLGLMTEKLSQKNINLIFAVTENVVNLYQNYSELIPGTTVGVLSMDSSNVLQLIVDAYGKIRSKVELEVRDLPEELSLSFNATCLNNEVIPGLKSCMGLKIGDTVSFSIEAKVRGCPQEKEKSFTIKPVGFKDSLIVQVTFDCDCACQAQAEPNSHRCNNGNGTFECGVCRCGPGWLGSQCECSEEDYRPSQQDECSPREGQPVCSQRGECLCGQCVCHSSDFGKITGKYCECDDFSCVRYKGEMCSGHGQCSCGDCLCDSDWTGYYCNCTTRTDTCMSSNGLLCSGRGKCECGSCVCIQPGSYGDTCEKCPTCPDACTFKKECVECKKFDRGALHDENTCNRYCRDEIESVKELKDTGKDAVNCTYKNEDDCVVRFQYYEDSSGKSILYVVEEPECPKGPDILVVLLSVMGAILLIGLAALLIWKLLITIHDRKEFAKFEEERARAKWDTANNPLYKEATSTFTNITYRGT

SMILES	IC50 (αvβ3 integrin) [nM]	IC50 (αvβ5 integrin) [nM]	IC50 (ανβ6) [nM]
[N-]=[N+]=NCCOCCOCCOCCOCCC(=O)NCCCOc1ccc([C@H](CC(=O)O)N2CCN(CCCc3ccc4c(n3)NCCC4)C2=O)cn1 [Structure 1c, (S)-3-(6-((1-azido-15-oxo-3,6,9,12-tetraoxa-16-azanonadecan-19-yl)oxy)pyridin-3-yl)-3-(2-oxo-3-(3-(5,6,7,8-tetrahydro-1,8-naphthyridin-2-yl)propyl)imidazolidin-1-yl)propanoic acid]	0.3	0.6	5.3
[N-]=[N+]=NCCOCCOCCOCCOc1ccc([C@H](CC(=O)O)N2CCN(CCCc3ccc4c(n3)NCCC4)C2=O)cc1F [Structure 2c, (S)-3-(4-(2-(2-(2-(2-azidoethoxy)ethoxy)ethoxy)ethoxy)-3-fluorophenyl)-3-(2-oxo-3-(3-(5,6,7,8-tetrahydro-1,8-naphthyridin-2-yl)propyl)imidazolidin-1-yl)propanoic acid]	0.3	5.6	8.9
